From publication PMC7580763, “Novel insights on saccharin- and acesulfame-based carbonic anhydrase inhibitors: design, synthesis, modelling investigations and biological activity evaluation” (Journal of Enzyme Inhibition and Medicinal Chemistry, 2020)
“And” between values parts separate entries of the source, which are not always exact repeats. Identical values can stand only once. Like-named read-outs stand apart in the source and are kept apart here.

Experiments:
Assay type in all cases: biochemical
hCA I = hCA I (Homo sapiens, UniProt P00915); experiment: CA inhibition, stopped-flow CO2 hydrase assay, hCA I
Procedure: (§1) An Applied Photophysics stopped-flow instrument has been used for assaying the CA-catalyzed CO2 hydration activity. […] The initial rates of the CA-catalysed CO2 hydration reaction were followed for a period of 10−100 s. The CO2 concentrations ranged from 1.7 to 17 mM for the determination of the kinetic parameters and inhibition constants. […] The uncatalyzed rates were determined in the same manner and subtracted from the total observed ones. Stock solutions of each inhibitor (0.1 mM) were prepared in distilled − deionized water and dilutions up to 0.01 nM were done thereafter with distilled − deionized water. Inhibitor and enzyme solutions were preincubated together for 15 min at room temperature prior to assay to allow for the formation of the E−I complex. The inhibition constants were obtained by nonlinear least-squares methods using the Cheng-Prusoff equation and represent the mean from at least three different determinations. […] Human CA isoforms were recombinant enzymes obtained in-house as reported earlier.

hCA II = hCA II (Homo sapiens, UniProt P00918); experiment: CA inhibition, stopped-flow CO2 hydrase assay, hCA II
Procedure: as §1

hCA IX = hCA IX (Homo sapiens, UniProt Q16790); experiment: CA inhibition, stopped-flow CO2 hydrase assay, hCA IX
Procedure: as §1

hCA XII = hCA XII (Homo sapiens, UniProt O43570); experiment: CA inhibition, stopped-flow CO2 hydrase assay, hCA XII
Procedure: as §1

[1] = Table 1, saccharin-based derivatives, recombinant enzyme, 15 min preincubation, pH 7.5
[2] = Table 2, acesulfame-based derivatives, mean from 3 different assays, errors ± 5–10%

Chain of hCA XII (O43570 25-354): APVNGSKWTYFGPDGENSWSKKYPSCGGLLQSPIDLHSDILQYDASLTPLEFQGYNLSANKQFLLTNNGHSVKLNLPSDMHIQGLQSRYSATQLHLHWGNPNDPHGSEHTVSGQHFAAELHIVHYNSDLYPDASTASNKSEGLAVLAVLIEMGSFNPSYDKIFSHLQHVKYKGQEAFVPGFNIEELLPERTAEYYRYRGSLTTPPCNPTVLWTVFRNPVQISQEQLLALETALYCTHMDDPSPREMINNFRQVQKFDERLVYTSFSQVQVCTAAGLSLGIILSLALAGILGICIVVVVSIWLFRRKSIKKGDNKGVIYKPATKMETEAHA
Chain of hCA I (P00915 whole entry): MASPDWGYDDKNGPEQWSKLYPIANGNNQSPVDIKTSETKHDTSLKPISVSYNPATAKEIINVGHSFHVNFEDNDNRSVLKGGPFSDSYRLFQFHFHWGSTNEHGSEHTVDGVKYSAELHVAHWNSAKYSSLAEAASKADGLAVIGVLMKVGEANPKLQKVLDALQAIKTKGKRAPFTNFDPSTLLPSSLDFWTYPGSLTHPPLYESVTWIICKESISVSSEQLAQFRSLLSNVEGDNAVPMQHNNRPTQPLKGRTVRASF

| SMILES | Ki (hCA I; [1]) [µM] | Ki (hCA II; [1]) [µM] | Ki (hCA IX; [1]) [µM] | Ki (hCA XII; [1]) [µM] | Ki (hCA I; [2]) [µM] | Ki (hCA II; [2]) [µM] | Ki (hCA IX; [2]) [µM] | Ki (hCA XII; [2]) [µM] | further results |
| --- | --- | --- | --- | --- | --- | --- | --- | --- | --- |
| O=C1c2ccccc2S(=O)(=O)N1Cc1cn(-c2ccccc2)nn1 [Compound 41] | > 1000 | > 1000 | > 1000 | > 1000 | – | – | – | – | Ki (hCA I): > 1000 µM; Ki (hCA II): > 1000 µM; Ki (hCA IX): > 1000 µM; Ki (hCA XII): > 1000 µM |
| O=C1c2ccccc2S(=O)(=O)N1Cc1cn(-c2ccc(Cl)cc2)nn1 [Compound 42] | > 1000 | 80.8 | 759 | > 1000 | – | – | – | – | – |
| O=C1c2ccccc2S(=O)(=O)N1Cc1cn(-c2ccc(Br)cc2)nn1 [Compound 43] | > 1000 | 76.4 | 538 | > 1000 | – | – | – | – | – |
| Cc1ccc(-n2cc(CN3C(=O)c4ccccc4S3(=O)=O)nn2)cc1 [Compound 44] | > 1000 | > 1000 | 670 | > 1000 | – | – | – | – | – |
| COc1ccc(-n2cc(CN3C(=O)c4ccccc4S3(=O)=O)nn2)cc1 [Compound 45] | > 1000 | > 1000 | 666 | > 1000 | – | – | – | – | – |
| O=C1c2ccccc2S(=O)(=O)N1Cc1cn(Cc2ccccc2)nn1 [Compound 46] | > 100 | > 100 | 20.9 | – | – | – | – | – | Ki (hCA IX): 20.9 µM and 7.4 µM; Ki (hCA XII): 7.4 µM |
| O=C(O)c1ccccc1S(=O)(=O)NCc1cn(-c2ccccc2)nn1 [Compound 47] | > 1000 | > 1000 | 927 | > 1000 | – | – | – | – | inhibitory activity against hCA I, in words (hCA I): ineffective; inhibitory activity against hCA II, in words (hCA II): ineffective; inhibitory activity against hCA IX, in words (hCA IX): ineffective; inhibitory activity against hCA XII, in words (hCA XII): ineffective |
| Cc1ccc(-n2cc(CNS(=O)(=O)c3ccccc3C(=O)O)nn2)cc1 [Compound 48] | > 1000 | > 1000 | > 1000 | > 1000 | – | – | – | – | inhibitory activity against hCA I, in words (hCA I): ineffective; inhibitory activity against hCA II, in words (hCA II): ineffective; inhibitory activity against hCA IX, in words (hCA IX): ineffective; inhibitory activity against hCA XII, in words (hCA XII): ineffective |
| O=C(O)c1ccccc1S(=O)(=O)NCc1cn(Cc2ccccc2)nn1 [Compound 49] | > 100 | > 100 | 1.9 | 4.5 | – | – | – | – | – |
| CC(C)=CCN1C(=O)C=C(C)OS1(=O)=O [Compound 50] | – | – | – | – | > 1000 | > 1000 | 0.33 | 0.24 | – |
| CC1=CC(=O)N(Cc2ccccc2)S(=O)(=O)O1 [Compound 51] | – | – | – | – | > 1000 | > 1000 | 2.7 | 0.27 | – |
| CC1=CC(=O)N(Cc2ccc(Cl)c(Cl)c2)S(=O)(=O)O1 [Compound 52] | – | – | – | – | > 1000 | > 1000 | 0.47 | 2 | – |
| CC1=CC(=O)N(Cc2cn(-c3ccccc3)nn2)S(=O)(=O)O1 [Compound 53] | – | – | – | – | > 1000 | > 1000 | > 1000 | > 1000 | – |
| CC1=CC(=O)N(Cc2cn(-c3ccc(Cl)cc3)nn2)S(=O)(=O)O1 [Compound 54] | – | – | – | – | > 1000 | > 1000 | > 1000 | > 1000 | – |
| CC1=CC(OCc2cn(-c3ccccc3)nn2)=NS(=O)(=O)O1 [Compound 55] | – | – | – | – | > 1000 | > 1000 | > 1000 | > 1000 | – |
| CC1=CC(OCc2cn(-c3ccc(C)cc3)nn2)=NS(=O)(=O)O1 [Compound 56] | – | – | – | – | > 1000 | > 1000 | > 1000 | > 1000 | – |
| CC1=CC(OCc2cn(-c3ccc(Cl)cc3)nn2)=NS(=O)(=O)O1 [Compound 57] | – | – | – | – | > 1000 | > 1000 | > 1000 | > 1000 | – |
| CC1=CC(OCc2cn(-c3ccc(Br)cc3)nn2)=NS(=O)(=O)O1 [Compound 58] | – | – | – | – | > 1000 | > 1000 | > 1000 | > 1000 | – |
| COc1ccc(-n2cc(COC3=NS(=O)(=O)OC(C)=C3)nn2)cc1 [Compound 59] | – | – | – | – | > 1000 | > 1000 | > 1000 | > 1000 | – |
| CC1=CC(OCc2cn(Cc3ccccc3)nn2)=NS(=O)(=O)O1 [Compound 60] | – | – | – | – | > 100 | > 100 | 1.1 | > 100 | – |
